In PubChem BioAssay AID328 (DTP/NCI, 2004):
Several values for one entry are separate records, joined by “and”; a condition that tells them apart may be missing. Identical values can stand only once. Toxic doses and inconclusive results are not listed.

System: BDF1 mice, P388 leukemia ip, median survival T/C
Experiment: NCI In Vivo Anticancer Drug Screen. Data for tumor model P388 Leukemia (intraperitoneal) in B6D2F1 (BDF1) mice
Conditions: endpoint: median survival time, higher = longer survival
Procedure, shortened: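 Antitumour effect was judged in vivo: survival in drug-treated mice, normalised to that of vehicle-dosed controls, gives the reported T/C.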

[1] = dose: 25.0 mg/kg/injection, schedule: Q01DX009 (ip), vehicle: saline with Tween-80
[2] = dose: 50.0 mg/kg/injection, schedule: Q01DX009 (ip), vehicle: saline with Tween-80
[3] = dose: 100.0 mg/kg/injection, schedule: Q01DX009 (ip), vehicle: saline with Tween-80
[4] = dose: 200.0 mg/kg/injection, schedule: Q01DX009 (ip), vehicle: saline with Tween-80

For `OC1(CSc2ccccc2)C=CCCC1` (stereo unspecified), the T/C [1] was 97 % of control and 111 % of control, the T/C [2] was 98 % of control and 112 % of control and 113 % of control and the T/C [3] was 109 % of control and 112 % of control and 121 % of control. The T/C [4] was 111 % of control and 119 % of control and 120 % of control.

`COc1cc2cc[n+]3c(C)c4ccc(OC)c(OC)c4cc3c2cc1OC` (tested in a mixture with another compound) was tested, and the T/C (dose: 2.0 mg/kg/injection, schedule: Q01DX009 (ip), vehicle: saline) was 122 % of control, the T/C (dose: 5.0 mg/kg/injection, schedule: Q01DX009 (ip), vehicle: saline) was 117 % of control and the T/C (dose: 20.0 mg/kg/injection, schedule: Q01DX009 (ip), vehicle: saline) was 150 % of control and 192 % of control. The T/C (dose: 40.0 mg/kg/injection, schedule: Q01DX009 (ip), vehicle: saline) was 168 % of control and 185 % of control.

In the case of `O=C(c1ccc[nH]1)C(Cl)(Cl)Cl`, the T/C [2] is reported as 108 % of control, the T/C [3] is reported as 117 % of control and the T/C [4] is reported as 115 % of control.

`OC(COc1ccccc1)CC(O)(C(F)(F)F)C(F)(F)F` (stereo unspecified) was tested, and the T/C (dose: 100.0 mg/kg/injection, schedule: Q01DX001 (ip), vehicle: saline with Tween-80) was 95 % of control, the T/C (dose: 200.0 mg/kg/injection, schedule: Q01DX001 (ip), vehicle: saline with Tween-80) was 104 % of control and the T/C (dose: 400.0 mg/kg/injection, schedule: Q01DX001 (ip), vehicle: saline with Tween-80) was 104 % of control.

`CCOC1=Cc2c(oc3c(C(C)(C)C)cc(OCC)cc23)OC(C(C)(C)C)=C1` was tested, and the T/C (dose: 3.12 mg/kg/injection, schedule: Q01DX009 (ip), vehicle: saline with Tween-80) was 112 % of control, the T/C (dose: 6.25 mg/kg/injection, schedule: Q01DX009 (ip), vehicle: saline with Tween-80) was 122 % of control and the T/C (dose: 12.5 mg/kg/injection, schedule: Q01DX009 (ip), vehicle: saline with Tween-80) was 122 % of control. For the same compound, the T/C [1] was 100 % of control and 121 % of control and the T/C [2] was 101 % of control.

With `O=C1c2ccccc2CCCC1N1CCOCC1` (stereo unspecified) the T/C (dose: 100.0 mg/kg/injection, schedule: Q04DX003 (ip), vehicle: saline with Tween-80) was 100 % of control, the T/C (dose: 200.0 mg/kg/injection, schedule: Q04DX003 (ip), vehicle: saline with Tween-80) was 90 % of control and the T/C (dose: 400.0 mg/kg/injection, schedule: Q04DX003 (ip), vehicle: saline with Tween-80) was 90 % of control.

With `OCC#CC#CCO` the T/C (dose: 25.0 mg/kg/injection, schedule: Q01DX001 (ip), vehicle: saline) was 95 % of control, the T/C (dose: 50.0 mg/kg/injection, schedule: Q01DX001 (ip), vehicle: saline) was 118 % of control and the T/C (dose: 100.0 mg/kg/injection, schedule: Q01DX001 (ip), vehicle: saline) was 100 % of control and 109 % of control.

For `COc1cccc2c1C(=O)c1c(O)c3c(c(O)c1C2=O)C[C@@](O)(/C(C)=N/NC(=O)c1ccc(Cl)cc1)C[C@@H]3OC1CC(N)C(O)C(C)O1` (stereo partly specified), the T/C (dose: 0.5 mg/kg/injection, schedule: Q01DX009 (ip), vehicle: water) was 110 % of control, the T/C (dose: 1.0 mg/kg/injection, schedule: Q01DX009 (ip), vehicle: water) was 107 % of control and 214 % of control and the T/C (dose: 2.0 mg/kg/injection, schedule: Q01DX009 (ip), vehicle: water) was 303 % of control. The T/C (dose: 4.0 mg/kg/injection, schedule: Q01DX009 (ip), vehicle: water) was 238 % of control and 115 % of control and the T/C (dose: 8.0 mg/kg/injection, schedule: Q01DX009 (ip), vehicle: water) was 164 % of control.

In the case of `CN1CCN(C(=O)N2c3ccccc3Sc3ccccc32)CC1`, the T/C (dose: 12.5 mg/kg/injection, schedule: Q01DX009 (ip), vehicle: saline) is reported as 100 % of control, the T/C (dose: 25.0 mg/kg/injection, schedule: Q01DX009 (ip), vehicle: saline) is reported as 110 % of control and the T/C (dose: 50.0 mg/kg/injection, schedule: Q01DX009 (ip), vehicle: saline) is reported as 100 % of control. For the same compound, the T/C (dose: 200.0 mg/kg/injection, schedule: Q04DX003 (ip), vehicle: saline) was 100 % of control.

For `C=C(C)C(=O)OCC1CO1` (stereo unspecified), the T/C (dose: 25.0 mg/kg/injection, schedule: Q01DX009 (ip), vehicle: water) was 112 % of control, the T/C (dose: 50.0 mg/kg/injection, schedule: Q01DX009 (ip), vehicle: water) was 96 % of control and the T/C (dose: 50.0 mg/kg/injection, schedule: Q01DX010 (ip), vehicle: saline) was 100 % of control. For the same compound, the T/C (dose: 100.0 mg/kg/injection, schedule: Q01DX009 (ip), vehicle: water) was 99 % of control, the T/C (dose: 100.0 mg/kg/injection, schedule: Q01DX010 (ip), vehicle: saline) was 100 % of control and the T/C (dose: 200.0 mg/kg/injection, schedule: Q01DX009 (ip), vehicle: water) was 122 % of control. The T/C (dose: 200.0 mg/kg/injection, schedule: Q01DX010 (ip), vehicle: saline) was 104 % of control.
